Laboratory results as given in ChEMBL document CHEMBL1201862, “PubChem BioAssay data set” (2004).
Activity calls are given as the source filed them.

Legend:
[1] = biological target: T1, Zinc finger protein mex-5 (Caenorhabditis elegans, UniProt Q9XUB2); assay: potency of MEX-5 RNA-binding blockers – biochemical, C. elegans, fluorescence polarization, dose response (AID 1960)
T1 sequence (Q9XUB2 whole entry): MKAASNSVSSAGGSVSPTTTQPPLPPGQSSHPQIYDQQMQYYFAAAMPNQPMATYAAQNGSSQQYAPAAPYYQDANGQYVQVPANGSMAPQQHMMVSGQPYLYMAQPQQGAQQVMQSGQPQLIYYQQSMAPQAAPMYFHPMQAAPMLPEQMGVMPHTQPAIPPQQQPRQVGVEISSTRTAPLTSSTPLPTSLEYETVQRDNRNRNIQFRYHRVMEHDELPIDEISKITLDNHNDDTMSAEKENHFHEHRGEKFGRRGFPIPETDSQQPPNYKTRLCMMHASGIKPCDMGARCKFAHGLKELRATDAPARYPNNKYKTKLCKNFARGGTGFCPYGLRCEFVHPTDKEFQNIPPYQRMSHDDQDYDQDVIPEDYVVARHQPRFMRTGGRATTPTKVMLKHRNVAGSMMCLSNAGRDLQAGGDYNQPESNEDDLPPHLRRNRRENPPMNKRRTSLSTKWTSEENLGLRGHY

[2] = biological target: T2, RNA-binding protein pos-1 (Caenorhabditis elegans, UniProt G5EF15); assay: disruptors of C. elegans POS-1 RNA interaction – biochemical, fluorescence polarization, dose response (AID 1964);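 note: purified POS-1 fused to maltose binding protein made in E. coli; potency of compounds blocking POS-1 binding to fluorescent RNA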
T2 sequence (G5EF15 whole entry): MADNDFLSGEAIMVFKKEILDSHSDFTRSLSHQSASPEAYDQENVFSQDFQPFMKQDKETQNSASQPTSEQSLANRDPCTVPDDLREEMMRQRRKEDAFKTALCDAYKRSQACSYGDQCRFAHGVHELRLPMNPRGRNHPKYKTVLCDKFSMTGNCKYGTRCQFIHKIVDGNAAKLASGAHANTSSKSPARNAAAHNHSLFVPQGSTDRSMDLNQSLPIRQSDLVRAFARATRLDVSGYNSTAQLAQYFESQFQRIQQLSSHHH

Cytochrome P450 2C19 = Cytochrome P450 2C19 (Homo sapiens, UniProt P33261); assay: Cytochrome panel assay with activity outcomes. Panel member name: p450-cyp2c19 Compounds with AC50 equal or less than 10 uM are considered active; type: functional
[3] = NIH-3T3 fibroblast cytotoxicity, dose response, cytotoxicity control, cell-based, fluorescence, Alamar Blue, secondary assay (AID 2327); type: functional;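 note: NIH-3T3 mouse fibroblasts cultured with fluconazole at 8 µg/mL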
[4] = fluconazole-exposed Candida albicans growth modulators – fluorescence, retest, confirmation (AID 2467); type: functional, cell-based
Cytochrome P450 1A2 = biological target: T3, Cytochrome P450 1A2 (Homo sapiens, UniProt P05177);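 note: PubChem cytochrome P450 panel assay, CYP1A2 panel member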
T3 sequence (P05177 whole entry): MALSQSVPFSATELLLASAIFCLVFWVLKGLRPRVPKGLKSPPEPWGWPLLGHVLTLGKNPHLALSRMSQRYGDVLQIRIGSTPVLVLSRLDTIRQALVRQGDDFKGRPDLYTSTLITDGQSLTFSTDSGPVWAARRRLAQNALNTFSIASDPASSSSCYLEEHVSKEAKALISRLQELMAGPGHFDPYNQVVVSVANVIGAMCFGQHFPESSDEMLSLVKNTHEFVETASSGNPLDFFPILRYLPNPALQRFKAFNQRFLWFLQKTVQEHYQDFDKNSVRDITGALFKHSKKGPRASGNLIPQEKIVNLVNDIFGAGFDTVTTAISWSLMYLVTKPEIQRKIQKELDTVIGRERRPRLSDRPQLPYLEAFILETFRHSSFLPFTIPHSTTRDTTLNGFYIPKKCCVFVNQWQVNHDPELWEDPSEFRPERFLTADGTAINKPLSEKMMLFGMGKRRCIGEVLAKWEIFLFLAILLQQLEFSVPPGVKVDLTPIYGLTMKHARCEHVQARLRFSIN

Cytochrome P450 2C9 = Cytochrome P450 2C9 (Homo sapiens, UniProt P11712)
Cytochrome P450 3A4 = Cytochrome P450 3A4 (Homo sapiens, UniProt P08684);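 note: CYP3A4 tested as one member of a cytochrome P450 panel screen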
Streptokinase A = biological target: T4, Streptokinase A (Streptococcus pyogenes serotype M1, UniProt P10520); assay: viability-normalized secreted streptokinase activity reduction – plasminogen activation absorbance, OD405, dose response (AID 1914); type: functional, Streptococcus pyogenes M1 GAS;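 note: secreted streptokinase activity via plasminogen activation per viability signal from cell pellet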
T4 sequence (P10520 whole entry): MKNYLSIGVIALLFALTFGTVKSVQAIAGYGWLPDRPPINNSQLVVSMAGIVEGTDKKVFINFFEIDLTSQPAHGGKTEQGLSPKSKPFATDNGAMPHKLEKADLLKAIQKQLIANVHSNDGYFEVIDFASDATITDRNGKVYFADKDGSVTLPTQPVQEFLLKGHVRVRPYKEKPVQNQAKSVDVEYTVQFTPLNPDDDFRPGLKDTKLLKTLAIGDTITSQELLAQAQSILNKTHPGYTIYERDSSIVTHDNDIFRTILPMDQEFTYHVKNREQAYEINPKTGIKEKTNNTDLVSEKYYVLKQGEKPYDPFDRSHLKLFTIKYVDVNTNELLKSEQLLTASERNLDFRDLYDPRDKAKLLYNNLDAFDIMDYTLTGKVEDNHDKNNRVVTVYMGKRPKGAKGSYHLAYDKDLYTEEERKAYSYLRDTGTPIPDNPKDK

Streptococcus = assay: GAS UMAA2166 growth inhibition – luminescence, BacTiterGlo, counter-screen for streptokinase expression inhibitor project, dose response (AID 1915); type: functional, organism-based;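 note: potency for reduction of bacterial viability or growth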
[5] = tested on: Streptococcus sp. 'group A'; assay: Streptococcus pyogenes SK(-)GAS viability under kanamycin – luminescence, BacTiterGlo, confirmation, counter-screen for streptokinase expression inhibitor project, dose response (AID 1900); type: functional, organism-based

Chain of Cytochrome P450 2C9 (P11712 whole entry): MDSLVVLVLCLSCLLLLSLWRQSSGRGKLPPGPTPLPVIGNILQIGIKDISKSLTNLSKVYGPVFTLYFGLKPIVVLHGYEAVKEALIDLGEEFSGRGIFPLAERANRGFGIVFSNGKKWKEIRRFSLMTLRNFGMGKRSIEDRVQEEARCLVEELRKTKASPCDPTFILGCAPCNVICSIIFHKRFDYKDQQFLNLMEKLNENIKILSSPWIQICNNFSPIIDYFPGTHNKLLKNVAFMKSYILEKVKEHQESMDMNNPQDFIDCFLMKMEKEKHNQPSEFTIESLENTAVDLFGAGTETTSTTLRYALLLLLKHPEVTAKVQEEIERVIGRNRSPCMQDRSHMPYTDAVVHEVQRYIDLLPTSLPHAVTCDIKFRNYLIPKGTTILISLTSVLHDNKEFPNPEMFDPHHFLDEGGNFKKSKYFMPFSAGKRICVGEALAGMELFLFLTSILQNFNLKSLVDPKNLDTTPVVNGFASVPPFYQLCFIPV
Chain of Cytochrome P450 2C19 (P33261 whole entry): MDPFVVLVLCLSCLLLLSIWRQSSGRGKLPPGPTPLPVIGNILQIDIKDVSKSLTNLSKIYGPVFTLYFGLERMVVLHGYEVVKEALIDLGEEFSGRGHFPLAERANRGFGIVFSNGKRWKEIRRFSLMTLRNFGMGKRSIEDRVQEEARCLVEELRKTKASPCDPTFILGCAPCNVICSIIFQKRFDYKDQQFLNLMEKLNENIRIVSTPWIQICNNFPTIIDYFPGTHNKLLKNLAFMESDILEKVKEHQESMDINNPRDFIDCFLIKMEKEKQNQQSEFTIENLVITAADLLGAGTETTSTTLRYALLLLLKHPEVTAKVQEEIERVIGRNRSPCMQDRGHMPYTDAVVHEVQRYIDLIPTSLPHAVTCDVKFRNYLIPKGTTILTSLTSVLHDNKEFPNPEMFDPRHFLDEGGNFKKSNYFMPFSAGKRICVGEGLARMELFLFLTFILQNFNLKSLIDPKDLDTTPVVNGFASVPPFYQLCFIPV
Chain of Cytochrome P450 3A4 (P08684 whole entry): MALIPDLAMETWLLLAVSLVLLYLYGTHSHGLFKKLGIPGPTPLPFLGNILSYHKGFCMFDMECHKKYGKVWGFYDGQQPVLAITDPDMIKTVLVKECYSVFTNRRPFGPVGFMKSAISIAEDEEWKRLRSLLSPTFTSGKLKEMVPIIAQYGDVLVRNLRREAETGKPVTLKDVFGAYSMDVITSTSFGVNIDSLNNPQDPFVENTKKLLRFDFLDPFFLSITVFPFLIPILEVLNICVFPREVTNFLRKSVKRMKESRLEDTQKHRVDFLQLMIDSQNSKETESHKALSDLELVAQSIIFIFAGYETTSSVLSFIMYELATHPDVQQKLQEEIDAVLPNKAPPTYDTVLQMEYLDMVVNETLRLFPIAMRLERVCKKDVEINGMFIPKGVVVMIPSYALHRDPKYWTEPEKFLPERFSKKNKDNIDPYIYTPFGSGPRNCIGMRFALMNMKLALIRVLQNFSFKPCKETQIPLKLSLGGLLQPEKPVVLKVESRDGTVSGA

**Q.** For `CC(=O)Nc1ccc(N/C=C/C(=O)c2ccc(C)o2)cc1`, which EC50 [1] is on record?
**A.** The EC50 was > 300 µM (not active).

**Q.** And the EC50 [2]?
**A.** The EC50 was > 300 µM (not active).

**Q.** Which EC50 [1] does the source give for `Cc1ccccc1OCC(=O)Nc1ccc2c(c1)C(=O)c1ccccc1C2=O` here?
**A.** Its EC50 is > 300 µM (not active).

**Q.** What about the EC50 [2] of the same compound?
**A.** Its EC50 is 36.1 µM (active).

**Q.** Which AC50 (Cytochrome P450 2C19) does the source give for `CC(C)(C)COS(=O)OCC(C)(C)C` here?
**A.** The AC50 was “inconclusive”.

**Q.** Which results are given for `COc1cccc(C(C(=O)NC2CCCC2)N(C(=O)c2ccco2)c2ccc(-n3cnnn3)c(C)c2)c1OC` (configuration not stated)?
**A.** EC50 [3]: > 150 µM (inconclusive); EC50 [4]: > 38 µM (not active)

**Q.** Which AC50 (Cytochrome P450 1A2) does the source give for `N#CCCn1c(=O)c(-c2cc(F)cc(F)c2)nc2cnc(Nc3ccccc3)nc21` here?
**A.** Its AC50 is 3.16 µM (inconclusive).

**Q.** Which AC50 (Cytochrome P450 1A2) does the source give for `N#Cc1c2c(c(-n3cnc4ccccc43)n3c1nc1ccccc13)CCC2` here?
**A.** The AC50 was 25.1 µM (inconclusive).

**Q.** And the AC50 (Cytochrome P450 2C9)?
**A.** The AC50 was 10 µM (inconclusive).

**Q.** And the AC50 (Cytochrome P450 3A4)?
**A.** The AC50 was 3.16 µM (inconclusive).

**Q.** Which AC50 (Cytochrome P450 2C9) does the source give for `CCCSc1cc(N2CCCC2)nc(-c2ccccc2)n1` here?
**A.** Its AC50 is 2 µM (inconclusive).

**Q.** What about the EC50 (Streptokinase A) of the same compound?
**A.** The EC50 was > 150 µM (not active).

**Q.** And the EC50 (Streptococcus)?
**A.** The EC50 was > 150 µM (not active).

**Q.** What about the EC50 [5] of the same compound?
**A.** The EC50 was 35 µM (active).

**Q.** What about the AC50 (Cytochrome P450 2C19; read-out: AC50) of the same compound?
**A.** The AC50 was 39.8 µM (inconclusive).

**Q.** Which results are given for `O=C1CC(N2CCN(C(c3ccccc3)c3ccccc3)CC2)C(=O)N1Cc1ccc(N2CCCC2=O)cc1` (configuration not stated)?
**A.** AC50 (Cytochrome P450 3A4): 22.4 µM (inconclusive); AC50 (Cytochrome P450 2C19; read-out: AC50): 5.01 µM (inconclusive)

**Q.** Which AC50 (Cytochrome P450 2C9) does the source give for `Cc1ccccc1C(C(=O)NC1CCCC1)N(C(=O)Cc1cccs1)c1ccc2c(c1)OCCO2` (configuration not stated) here?
**A.** The AC50 was 0.891 µM (inconclusive).

**Q.** For `COc1ccc2c3c([nH]c2c1)C1CC2C(CC(O)C(OC)C2C(=O)O)CN1CC3` (configuration not stated), which EC50 [1] is on record?
**A.** The EC50 was > 300 µM (not active).

**Q.** And the EC50 [2]?
**A.** Its EC50 is > 300 µM (not active).

**Q.** Which AC50 (Cytochrome P450 1A2) does the source give for `Cc1oc(-c2cccs2)[n+]([O-])c1C` here?
**A.** The AC50 was 25.1 µM (inconclusive).

**Q.** For `CCOc1ccc(/C=C2\C(=O)c3ccccc3OC2c2ccccc2)cc1` (configuration not stated), which AC50 (Cytochrome P450 1A2) is on record?
**A.** Its AC50 is 12.6 µM (inconclusive).

**Q.** What about the AC50 (Cytochrome P450 2C9) of the same compound?
**A.** The AC50 was 10 µM (inconclusive).

**Q.** For `Cc1cc2oc(=O)c(CC(=O)NCCCO)c(C)c2c2occ(C(C)(C)C)c12`, which EC50 [1] is on record?
**A.** Its EC50 is > 300 µM (not active).

**Q.** What about the EC50 [2] of the same compound?
**A.** The EC50 was > 300 µM (not active).

**Q.** With `COc1ccc(-n2c(=O)c(-c3ccc(Cl)cc3)nc3cncnc32)cc1` as the compound, how does the AC50 (Cytochrome P450 1A2) read?
**A.** Its AC50 is 5.01 µM (inconclusive).

**Q.** Which results are given for `CCCc1nnc(NC(=O)c2cccs2)s1`?
**A.** AC50 (Cytochrome P450 2C9): 12.6 µM (inconclusive); AC50 (Cytochrome P450 2C19; read-out: AC50): 25.1 µM (inconclusive)

**Q.** For `CN1CCN(C(=O)c2cnn(-c3ccccc3)c2NC(=O)c2ccccc2)CC1`, which EC50 [3] is on record?
**A.** Its EC50 is > 150 µM (inactive).

**Q.** And the EC50 [4]?
**A.** Its EC50 is > 38 µM (not active).

**Q.** Which AC50 (Cytochrome P450 2C9) does the source give for `CN(C)N1C(N)=C(C#N)C(c2cccnc2)C2=C1CC(C)(C)CC2=O` (configuration not stated) here?
**A.** The AC50 was 0.0224 µM (inconclusive).

**Q.** With `O=C(NCc1ccccc1)C(c1ccncc1)N(C(=O)c1csnn1)C1CC1` (configuration not stated) as the compound, how does the AC50 (Cytochrome P450 2C9) read?
**A.** Its AC50 is 1.78 µM (inconclusive).

**Q.** With `CCCCOc1ccccc1N` as the compound, how does the AC50 (Cytochrome P450 1A2) read?
**A.** Its AC50 is 39.8 µM (inconclusive).

**Q.** What about the AC50 (Cytochrome P450 2C9) of the same compound?
**A.** Its AC50 is 39.8 µM (inconclusive).

**Q.** Which EC50 [3] does the source give for `Cc1ccc(N/N=C2\COC(C)(C)CC2=O)cc1` here?
**A.** Its EC50 is > 160 µM (inactive).

**Q.** And the EC50 [4]?
**A.** The EC50 was > 38 µM (not active).
